From paper PMC10980815, “Cell surface patching via CXCR4-targeted nanothreads for cancer metastasis inhibition” (Nature Communications, 2024)
Ends that are not written are not given here.

Columns and labels:
Type in all cases: in vivo, female BALB/c mice
TGF-β = TGF-β ELISA (intra-tumoral, serum, pulmonary); design: Pulmonary TGF-β: unit not given beside the values; Intratumoral TGF-β / Systemic TGF-β: unit not given here; details: for Systemic TGF-β: serum
Method: (§1) 4T1 cells (1 × 10^6 cells) were injected into the third mammary fat pad of female BALB/c mice (6–8-week). […] On day 28, blood samples, lungs and tumors were harvested.
(§2) To explore the “seed-soil” crosstalk, the serum, intra-tumoral, and pulmonary concentration of LOX was determined using enzyme-linked immunosorbent assay kits (CSB-EL013041MO, CUSABIO, https://www.cusabio.com/) according to the manufacturer’s instructions. The serum, intra-tumoral, and pulmonary concentration of TGF-β was determined using mouse TGF-β ELISA Kit (Cat No.: HB1328-Mu). The formation of PMN was investigated through lung slices subjected to immunofluorescent staining of LOX, E-cadherin, and S100A8. For immunofluorescent staining of E-cadherin, Lung slices were stained with CoraLite® Plus 647 anti-mouse CD324 (E-cadherin, 1:300 dilution). For immunofluorescent staining of LOX and S100A8, Lung slices were separately stained with anti-LOX recombinant rabbit monoclonal antibody (1:500 dilution) or S100-A8 / MRP8 rabbit pAb (1:500 dilution), followed by staining with goat anti-rabbit IgG H&L Alexa Fluor® 647 (1:1000 dilution), respectively. Single-cell suspensions of lungs were analyzed using flow cytometry to assess BMDC (CD11b^+Gr1^+) with PE anti-mouse/human CD11b antibody (1:300 dilution) and FITC anti-mouse Ly-6G/Ly-6C (Gr-1) antibody (1:300 dilution). Chemokine concentrations in lungs were determined using a mouse CXCL12 ELISA kit.

[1] = system: orthotopic 4T1 breast tumors; experiment: EMT markers E-cadherin and vimentin in primary tumors (flow cytometry)
Method: as §1
To investigate the epithelial-mesenchymal transition process in tumor tissues, immunofluorescent staining of E-cadherin, vimentin, MMP-9, and TGF-β, along with flow cytometry analysis of E-cadherin and vimentin, were applied. For immunofluorescent staining of E-cadherin and vimentin, tumor slices were stained with CoraLite® Plus 647 anti-mouse CD324 (E-cadherin, 1:300 dilution) and anti-vimentin mouse monoclonal antibody (1:500 dilution) at 4 °C overnight, followed by staining with goat anti-mouse IgG H&L Alexa Fluor® 488 (1:1000 dilution). For flow cytometry analysis of E-cadherin and vimentin, single-cell suspensions of tumor tissues were stained with CoraLite® Plus 647 anti-mouse CD324 (E-cadherin, 1:300 dilution) or sequentially stained with anti-vimentin recombinant rabbit monoclonal antibody and goat anti-rabbit IgG H&L Alexa Fluor® 647 (1:1000 dilution), respectively. For immunofluorescent staining of MMP-9 and TGF-β, tumor slices were separately stained with MMP9 Rabbit pAb (1:500 dilution) or anti-TGF beta 1 recombinant rabbit monoclonal antibody (1:500 dilution), followed by staining with goat anti-rabbit IgG H&L Alexa Fluor® 647 (1:1000 dilution), respectively.

[2] = system: HIF-1α in orthotopic 4T1 tumors; experiment: Intratumoral HIF-1α expression by flow cytometry
Method: as §1
For evaluating the hypoxic conditions in tumor tissues, immunofluorescent staining and flow cytometry analysis of HIF-1α were conducted. For immunofluorescent staining of HIF-1α, tumor slices were sequentially stained with anti-HIF-1 alpha recombinant rabbit monoclonal antibody (1:500 dilution) and goat anti-rabbit IgG H&L Alexa Fluor® 647 (1:1000 dilution). For flow cytometry analysis of HIF-1α, single-cell suspensions of tumor tissues were sequentially stained with anti-HIF1 alpha rabbit polyclonal antibody (1:500 dilution) and goat anti-rabbit IgG H&L Alexa Fluor® 647 (1:1000 dilution) before analysis.

CXCL12 in lungs = experiment: Pulmonary CXCL12 ELISA
Method: as §1, §2

LOX = LOX ELISA (intra-tumoral, serum, pulmonary); design: Pulmonary LOX: unit not given beside the values; Intratumoral LOX / Systemic LOX: unit not given here; details: for Systemic LOX: serum
Method: as §1, §2

[3] = i.v. days 7, 14, 21 (5 mg/kg BS equivalence; P-CM2 24 h later), analysis day 28, mouse 1 of 5
[4] = ELISA, i.v. days 7, 14, 21, analysis day 28, mouse 1 of 5

Substance: LGASWHRPDKCCLGYQKRPLPA [Free BS]
- Intratumoral TGF-β (TGF-β; replicate 1): 20.98
- Pulmonary TGF-β (TGF-β; replicate 1): 9.12
- Intratumoral TGF-β (TGF-β; replicate 2): 26.43
- Pulmonary TGF-β (TGF-β; replicate 2): 10.3
- Intratumoral TGF-β (TGF-β; replicate 3): 26.11
- Pulmonary TGF-β (TGF-β; replicate 3): 11.1
- Intratumoral TGF-β (TGF-β; replicate 4): 22.3
- Pulmonary TGF-β (TGF-β; replicate 4): 10.7
- Intratumoral TGF-β (TGF-β; replicate 5): 20.45
- Pulmonary TGF-β (TGF-β; replicate 5): 8.9
- Systemic TGF-β (TGF-β; replicate 1): 321.2
- Systemic TGF-β (TGF-β; replicate 2): 324.5
- Systemic TGF-β (TGF-β; replicate 3): 372.1
- Systemic TGF-β (TGF-β; replicate 4): 355.2
- Systemic TGF-β (TGF-β; replicate 5): 352
- Relative fluorescence intensity of E-cadherin ([1]; replicate 1): 125.013
- Relative fluorescence intensity of vimentin ([1]; replicate 1): 279.76
- Relative fluorescence intensity of E-cadherin ([1]; replicate 2): 109.513
- Relative fluorescence intensity of vimentin ([1]; replicate 2): 205.554
- Relative fluorescence intensity of E-cadherin ([1]; replicate 3): 122.233
- Relative fluorescence intensity of vimentin ([1]; replicate 3): 194.538
- Relative fluorescence intensity of E-cadherin ([1]; replicate 4): 126.237
- Relative fluorescence intensity of vimentin ([1]; replicate 4): 224.095
- Relative fluorescence intensity of E-cadherin ([1]; replicate 5): 145.15
- Relative fluorescence intensity of vimentin ([1]; replicate 5): 192.228
- intratumoral HIF-1α expression, flow cytometry (Fig. 6c) [2, 3]: 1107.6
- intratumoral HIF-1α expression, flow cytometry (Fig. 6c) ([2]; same, mouse 2 of 5): 915.453
- intratumoral HIF-1α expression, flow cytometry (Fig. 6c) ([2]; same, mouse 3 of 5): 924.512
- intratumoral HIF-1α expression, flow cytometry (Fig. 6c) ([2]; same, mouse 4 of 5): 898.316
- intratumoral HIF-1α expression, flow cytometry (Fig. 6c) ([2]; same, mouse 5 of 5): 847.852
- pulmonary CXCL12 (Fig. 6g) (CXCL12 in lungs; [4]): 440
- pulmonary CXCL12 (Fig. 6g) (CXCL12 in lungs; same, mouse 2 of 5): 579
- pulmonary CXCL12 (Fig. 6g) (CXCL12 in lungs; same, mouse 3 of 5): 367
- pulmonary CXCL12 (Fig. 6g) (CXCL12 in lungs; same, mouse 4 of 5): 552
- pulmonary CXCL12 (Fig. 6g) (CXCL12 in lungs; same, mouse 5 of 5): 532
- Intratumoral LOX (LOX; replicate 1): 4.19
- Pulmonary LOX (LOX; replicate 1): 254.76
- Intratumoral LOX (LOX; replicate 2): 4.18
- Pulmonary LOX (LOX; replicate 2): 210.31
- Intratumoral LOX (LOX; replicate 3): 5.17
- Pulmonary LOX (LOX; replicate 3): 211.1
- Intratumoral LOX (LOX; replicate 4): 5.44
- Pulmonary LOX (LOX; replicate 4): 280.17
- Intratumoral LOX (LOX; replicate 5): 4.81
- Pulmonary LOX (LOX; replicate 5): 276.43
- Systemic LOX (LOX; replicate 1): 127.4
- Systemic LOX (LOX; replicate 2): 132.76
- Systemic LOX (LOX; replicate 3): 133.61
- Systemic LOX (LOX; replicate 4): 151.3
- Systemic LOX (LOX; replicate 5): 147.4

Substance: P-BS: HPMA copolymer-BS conjugate, ~6 BS grafts per polymer (LGASWHRPDKCCLGYQKRPLPA; not fully specified (residues 11, 12); also: about 6 peptides grafted on HPMA copolymer via cysteine-maleimide thioether links)
- Intratumoral TGF-β (TGF-β; replicate 1): 15.43
- Pulmonary TGF-β (TGF-β; replicate 1): 5.4
- Intratumoral TGF-β (TGF-β; replicate 2): 15.3
- Pulmonary TGF-β (TGF-β; replicate 2): 5.1
- Intratumoral TGF-β (TGF-β; replicate 3): 19.3
- Pulmonary TGF-β (TGF-β; replicate 3): 7.1
- Intratumoral TGF-β (TGF-β; replicate 4): 17.3
- Pulmonary TGF-β (TGF-β; replicate 4): 6.3
- Intratumoral TGF-β (TGF-β; replicate 5): 15.33
- Pulmonary TGF-β (TGF-β; replicate 5): 4.2
- Systemic TGF-β (TGF-β; replicate 1): 276.4
- Systemic TGF-β (TGF-β; replicate 2): 245.1
- Systemic TGF-β (TGF-β; replicate 3): 225.1
- Systemic TGF-β (TGF-β; replicate 4): 267.3
- Systemic TGF-β (TGF-β; replicate 5): 241.2
- Relative fluorescence intensity of E-cadherin ([1]; replicate 1): 136.747
- Relative fluorescence intensity of vimentin ([1]; replicate 1): 148.698
- Relative fluorescence intensity of E-cadherin ([1]; replicate 2): 140.523
- Relative fluorescence intensity of vimentin ([1]; replicate 2): 180.025
- Relative fluorescence intensity of E-cadherin ([1]; replicate 3): 162.569
- Relative fluorescence intensity of vimentin ([1]; replicate 3): 180.666
- Relative fluorescence intensity of E-cadherin ([1]; replicate 4): 158.855
- Relative fluorescence intensity of vimentin ([1]; replicate 4): 185.036
- Relative fluorescence intensity of E-cadherin ([1]; replicate 5): 155.981
- Relative fluorescence intensity of vimentin ([1]; replicate 5): 170.787
- intratumoral HIF-1α expression, flow cytometry (Fig. 6c) [2, 3]: 747.043
- intratumoral HIF-1α expression, flow cytometry (Fig. 6c) ([2]; same, mouse 2 of 5): 870.276
- intratumoral HIF-1α expression, flow cytometry (Fig. 6c) ([2]; same, mouse 3 of 5): 640.882
- intratumoral HIF-1α expression, flow cytometry (Fig. 6c) ([2]; same, mouse 4 of 5): 534.456
- intratumoral HIF-1α expression, flow cytometry (Fig. 6c) ([2]; same, mouse 5 of 5): 521.955
- pulmonary CXCL12 (Fig. 6g) (CXCL12 in lungs; [4]): 258
- pulmonary CXCL12 (Fig. 6g) (CXCL12 in lungs; same, mouse 2 of 5): 221
- pulmonary CXCL12 (Fig. 6g) (CXCL12 in lungs; same, mouse 3 of 5): 368
- pulmonary CXCL12 (Fig. 6g) (CXCL12 in lungs; same, mouse 4 of 5): 245
- pulmonary CXCL12 (Fig. 6g) (CXCL12 in lungs; same, mouse 5 of 5): 267
- Intratumoral LOX (LOX; replicate 1): 3.43
- Pulmonary LOX (LOX; replicate 1): 195.4
- Intratumoral LOX (LOX; replicate 2): 2.08
- Pulmonary LOX (LOX; replicate 2): 174.61
- Intratumoral LOX (LOX; replicate 3): 1.87
- Pulmonary LOX (LOX; replicate 3): 154.51
- Intratumoral LOX (LOX; replicate 4): 2.69
- Pulmonary LOX (LOX; replicate 4): 156.3
- Intratumoral LOX (LOX; replicate 5): 2.96
- Pulmonary LOX (LOX; replicate 5): 144.2
- Systemic LOX (LOX; replicate 1): 76.42
- Systemic LOX (LOX; replicate 2): 77.13
- Systemic LOX (LOX; replicate 3): 91.2
- Systemic LOX (LOX; replicate 4): 85.1
- Systemic LOX (LOX; replicate 5): 105.1
